Assay results taken from US8835466B2, “Synthesis and uses of pyroglutamic acid derivatives” (Prodimed, S.A., priority 2006, dated 2014).

System: KLN 205 cells (lung cell carcinoma)
Test: Effect of 9d and Cisplatin on KLN 205 tumour growth after subcutaneous, intradermal or intramuscular inoculation (Example 12)
Type: in vivo, DBA/2 mice
Procedure: This was carried out by measuring two perpendicular diameters (d1/d2) with a calliper. These measures were used to obtain both tumour surface and volume: […] Results were expressed as single values and/or as the mean±SD or median from each experimental group. This assay was made in order to check the effect on in vivo tumour growth in mice challenged with KLN 205 cells. Tumours where established by subcutaneous, intradermal or intramuscular inoculation. The effect of the combination of cisplatin and/or Isomer (9d) was compared with placebo in mice challenged intradermally. […] KLN 205 is a lung cell carcinoma originated in DBA/2 mouse strain, and therefore syngeneic in mice with DBA/2 genetic background (Kaneko T and […]. Growth characteristics and drug responses of a murine lung carcinoma in vitro and in vivo. Cancer Research. 38: 2084-2090; 1978). KLN 205 cells (CLS, Eppelheim, Germany) were maintained in vitro by serial passages every 3-4 days. […] Louis, Mo., USA) by seeding 5×10^6 cells onto 75 cm^2 culture flasks. Subcultures were carried out by collecting detached cells after treatment with trypsin-EDTA (Sigma, St. Louis, Mo., USA). Tumour cells, collected from 48 hour cultures, were used as source of KLN 205 cells for the studies described below. […] Tumours were established by subcutaneous and intradermal inoculation in the right hind flank, and intramuscular in the right hind leg. Mice (DBA/2) were inoculated with 0.05 mL containing 2×10^5 viable KLN 205 cells. The day of subcutaneous, intradermal and intramuscular inoculation will be considered Day 0 of the test. A case-control study was performed with treated and control mice in order to determine whether differences between placebo, 9d, Cisplatin or 9d+Cisplatin were present. The data obtained (tumour surface and volume) were tested for Normal distribution within the groups (Kolmogorov Smirnov test p<0.05). […] The U-test of Mann Withney was chosen for being one of the better known non-parametrical tests, anyway, results for this test are equivalent both to those of Wilcoxon's sum of ranges and Kruskal-Wallis two-groups test.

[1] = Group A2 (9d 250 ng/mouse), day 0 after tumour inoculation
[2] = Group A2 (9d 250 ng/mouse), day 10 after tumour inoculation
[3] = Group A2 (9d 250 ng/mouse), day 13 after tumour inoculation
[4] = Group A2 (9d 250 ng/mouse), day 17 after tumour inoculation
[5] = Group A2 (9d 250 ng/mouse), day 20 after tumour inoculation
[6] = Group A2 (9d 250 ng/mouse), day 24 after tumour inoculation
[7] = Group A2 (9d 250 ng/mouse), day 27 after tumour inoculation
[8] = Group A2 (9d 250 ng/mouse), day 31 after tumour inoculation
[9] = Group C2 (9d 250 ng/mouse), day 0 after tumour inoculation
[10] = Group C2 (9d 250 ng/mouse), day 10 after tumour inoculation
[11] = Group C2 (9d 250 ng/mouse), day 13 after tumour inoculation
[12] = Group C2 (9d 250 ng/mouse), day 17 after tumour inoculation
[13] = Group C2 (9d 250 ng/mouse), day 20 after tumour inoculation
[14] = Group C2 (9d 250 ng/mouse), day 24 after tumour inoculation
[15] = Group C2 (9d 250 ng/mouse), day 27 after tumour inoculation
[16] = Group C2 (9d 250 ng/mouse), day 31 after tumour inoculation
[17] = Group C2 (9d 250 ng/mouse), day 34 after tumour inoculation
[18] = Group C2 (9d 250 ng/mouse), day 38 after tumour inoculation
[19] = Groups B2-B4 (9d 250 ng, Cisplatin 65 μg, or both), day 0 after tumour inoculation
[20] = Groups B2-B4 (9d 250 ng, Cisplatin 65 μg, or both), day 10 after tumour inoculation
[21] = Groups B2-B4 (9d 250 ng, Cisplatin 65 μg, or both), day 13 after tumour inoculation
[22] = Groups B2-B4 (9d 250 ng, Cisplatin 65 μg, or both), day 17 after tumour inoculation
[23] = Groups B2-B4 (9d 250 ng, Cisplatin 65 μg, or both), day 20 after tumour inoculation
[24] = Groups B2-B4 (9d 250 ng, Cisplatin 65 μg, or both), day 24 after tumour inoculation
[25] = Groups B2-B4 (9d 250 ng, Cisplatin 65 μg, or both), day 27 after tumour inoculation
[26] = Groups B2-B4 (9d 250 ng, Cisplatin 65 μg, or both), day 31 after tumour inoculation

Br.N[C@]1(C[n+]2ccccc2)C[C@H](C(=O)O)NC1=O.[Br-] (single isomer, unassigned; isomer 4) [isomer 4, 3S,5R-1-(3-Amino-5-carboxy-2-oxopyrrolidin-3-ylmethyl)pyridinium bromide hidrobromide]
SURFACE Overall values (Mean) [1]: 0 mm^2 | SURFACE Overall values (Median) [1]: 0 mm^2 | VOLUME Overall values (Mean) [1]: 0 mm^3 | VOLUME Overall values (Median) [1]: 0 mm^3 | SURFACE Overall values (Mean) [2]: 11.4 mm^2 | SURFACE Overall values (Median) [2]: 12.5 mm^2 | VOLUME Overall values (Mean) [2]: 22 mm^3 | VOLUME Overall values (Median) [2]: 22.75 mm^3 | SURFACE Overall values (Mean) [3]: 27.4 mm^2 | SURFACE Overall values (Median) [3]: 30 mm^2 | VOLUME Overall values (Mean) [3]: 75.5 mm^3 | VOLUME Overall values (Median) [3]: 75 mm^3 | SURFACE Overall values (Mean) [4]: 49 mm^2 | SURFACE Overall values (Median) [4]: 45 mm^2 | VOLUME Overall values (Mean) [4]: 171.6 mm^3 | VOLUME Overall values (Median) [4]: 135 mm^3 | SURFACE Overall values (Mean) [5]: 74.4 mm^2 | SURFACE Overall values (Median) [5]: 70 mm^2 | VOLUME Overall values (Mean) [5]: 304.2 mm^3 | VOLUME Overall values (Median) [5]: 245 mm^3 | SURFACE Overall values (Mean) [6]: 117.4 mm^2 | SURFACE Overall values (Median) [6]: 118.5 mm^2 | VOLUME Overall values (Mean) [6]: 554.9 mm^3 | VOLUME Overall values (Median) [6]: 506.25 mm^3 | SURFACE Overall values (Mean) [7]: 149.3 mm^2 | SURFACE Overall values (Median) [7]: 159 mm^2 | VOLUME Overall values (Mean) [7]: 765.05 mm^3 | VOLUME Overall values (Median) [7]: 800 mm^3 | SURFACE Overall values (Mean) [8]: 179.2 mm^2 | SURFACE Overall values (Median) [8]: 186 mm^2 | VOLUME Overall values (Mean) [8]: 1020 mm^3 | VOLUME Overall values (Median) [8]: 1058.75 mm^3 | SURFACE Overall values (Mean) [9]: 0 mm^2 | SURFACE Overall values (Median) [9]: 0 mm^2 | SURFACE Overall values (Mean) [10]: 0.06 mm^2 | SURFACE Overall values (Median) [10]: 0.03 mm^2 | SURFACE Overall values (Mean) [11]: 0.18 mm^2 | SURFACE Overall values (Median) [11]: 0.17 mm^2 | SURFACE Overall values (Mean) [12]: 0.37 mm^2 | SURFACE Overall values (Median) [12]: 0.315 mm^2 | SURFACE Overall values (Mean) [13]: 0.89 mm^2 | SURFACE Overall values (Median) [13]: 0.93 mm^2 | SURFACE Overall values (Mean) [14]: 2.48 mm^2 | SURFACE Overall values (Median) [14]: 1.83 mm^2 | SURFACE Overall values (Mean) [15]: 6.7 mm^2 | SURFACE Overall values (Median) [15]: 6.94 mm^2 | SURFACE Overall values (Mean) [16]: 13.61 mm^2 | SURFACE Overall values (Median) [16]: 12.26 mm^2 | SURFACE Overall values (Mean) [17]: 29.17 mm^2 | SURFACE Overall values (Median) [17]: 24.34 mm^2 | SURFACE Overall values (Mean) [18]: 41.53 mm^2 | SURFACE Overall values (Median) [18]: 37.56 mm^2 | SURFACE Overall values (Mean) [19]: 0 mm^2 | SURFACE Overall values (Median) [19]: 0 mm^2 | VOLUME Overall values (Mean) [19]: 0 mm^3 | VOLUME Overall values (Median) [19]: 0 mm^3 | SURFACE Overall values (Mean) [20]: 14.3 mm^2 | SURFACE Overall values (Median) [20]: 12.5 mm^2 | VOLUME Overall values (Mean) [20]: 28.85 mm^3 | VOLUME Overall values (Median) [20]: 22.75 mm^3 | SURFACE Overall values (Mean) [21]: 27.9 mm^2 | SURFACE Overall values (Median) [21]: 25 mm^2 | VOLUME Overall values (Mean) [21]: 74.95 mm^3 | VOLUME Overall values (Median) [21]: 62.5 mm^3 | SURFACE Overall values (Mean) [22]: 46.3 mm^2 | SURFACE Overall values (Median) [22]: 42 mm^2 | VOLUME Overall values (Mean) [22]: 150.05 mm^3 | VOLUME Overall values (Median) [22]: 126 mm^3 | SURFACE Overall values (Mean) [23]: 71.2 mm^2 | SURFACE Overall values (Median) [23]: 63.5 mm^2 | VOLUME Overall values (Mean) [23]: 280.6 mm^3 | VOLUME Overall values (Median) [23]: 232.75 mm^3 | SURFACE Overall values (Mean) [24]: 107.8 mm^2 | SURFACE Overall values (Median) [24]: 95 mm^2 | VOLUME Overall values (Mean) [24]: 496.8 mm^3 | VOLUME Overall values (Median) [24]: 425.25 mm^3 | SURFACE Overall values (Mean) [25]: 141.7 mm^2 | SURFACE Overall values (Median) [25]: 128 mm^2 | VOLUME Overall values (Mean) [25]: 744.75 mm^3 | VOLUME Overall values (Median) [25]: 608.5 mm^3 | SURFACE Overall values (Mean) [26]: 177.1 mm^2 | SURFACE Overall values (Median) [26]: 162.5 mm^2 | VOLUME Overall values (Mean) [26]: 1029.35 mm^3 | VOLUME Overall values (Median) [26]: 885.75 mm^3 | Differences in intradermal KLN 205 tumour growth rate vs. placebo, in words (intradermal inoculation, Mann-Whitney U test): not differences | Intradermal KLN 205 tumour growth vs. placebo, tendency in words (intradermal inoculation, surface or volume, all days scored after day 17th): significant tendency | Differences in intramuscular KLN 205 tumour growth rate vs. placebo, in words (intramuscular inoculation, Mann-Whitney U test): not differences | Inhibition of the in vivo growth of subcutaneous KLN 205 cells, in words (subcutaneous inoculation): inhibit the in vivo growth | Differences in subcutaneous KLN 205 tumour growth rate vs. placebo, statistical significance p (Mann-Whitney U test) (subcutaneous inoculation, surface or volume, all days scored after the day 20th): < 0.05

N.N.[Cl][Pt][Cl] [Cisplatin, reference compound]
SURFACE Overall values (Mean) [19]: 0 mm^2 | SURFACE Overall values (Median) [19]: 0 mm^2 | VOLUME Overall values (Mean) [19]: 0 mm^3 | VOLUME Overall values (Median) [19]: 0 mm^3 | SURFACE Overall values (Mean) [20]: 7.3 mm^2 | SURFACE Overall values (Median) [20]: 6.5 mm^2 | VOLUME Overall values (Mean) [20]: 11.05 mm^3 | VOLUME Overall values (Median) [20]: 8.75 mm^3 | SURFACE Overall values (Mean) [21]: 20 mm^2 | SURFACE Overall values (Median) [21]: 20 mm^2 | VOLUME Overall values (Mean) [21]: 43.6 mm^3 | VOLUME Overall values (Median) [21]: 40 mm^3 | SURFACE Overall values (Mean) [22]: 38.3 mm^2 | SURFACE Overall values (Median) [22]: 33 mm^2 | VOLUME Overall values (Mean) [22]: 115.95 mm^3 | VOLUME Overall values (Median) [22]: 91.5 mm^3 | SURFACE Overall values (Mean) [23]: 62.2 mm^2 | SURFACE Overall values (Median) [23]: 56 mm^2 | VOLUME Overall values (Mean) [23]: 233.5 mm^3 | VOLUME Overall values (Median) [23]: 196 mm^3 | SURFACE Overall values (Mean) [24]: 93.7 mm^2 | SURFACE Overall values (Median) [24]: 96 mm^2 | VOLUME Overall values (Mean) [24]: 408.05 mm^3 | VOLUME Overall values (Median) [24]: 384 mm^3 | SURFACE Overall values (Mean) [25]: 124.1 mm^2 | SURFACE Overall values (Median) [25]: 129 mm^2 | VOLUME Overall values (Mean) [25]: 642.55 mm^3 | VOLUME Overall values (Median) [25]: 646.5 mm^3 | SURFACE Overall values (Mean) [26]: 151.3 mm^2 | SURFACE Overall values (Median) [26]: 155 mm^2 | VOLUME Overall values (Mean) [26]: 848.95 mm^3 | VOLUME Overall values (Median) [26]: 775 mm^3 | Inhibition of the in vivo growth of intradermal KLN 205 cells, in words (intradermal inoculation): inhibit the in vivo growth | Differences in intradermal KLN 205 tumour growth rate vs. placebo, statistical significance p (Mann-Whitney U test) (intradermal inoculation, surface or volume, days 17th, 20th and 31th): < 0.05
